Laboratory results taken from patent US20040152191A1 (priority 2001, published 2004).

Legend:
Format in all cases: cell-based
[1] = system: CD34+ cells of human cord blood; experiment: Production of dendritic cells from CD34+ cells of human cord blood, cell markers (Example 3); conditions: TNF-α 200 IU/ml or RU 41740 10 μg/ml until D6
Source text: The experimental conditions are similar to Example 2, except the fact that the cells are derived from cord blood:
Purification: After Ficoll, the CD34+ cells represent 0.83% of the mononucleated cells (MNC).
After purification by positive selection, 18.1% of CD34+ are obtained.
Duplication: on D6, D7,D8, D10 and D12.

[2] = system: human hematopoietic CD34+ stem cells; experiment: Production of dendritic cells from human hematopoietic CD34+ stem cells, cell markers (Example 2); conditions: TNF-α 2.5 ng/ml or RU 41740 6.25 ng/ml from D0 to D5
Description: Purification: After Ficoll, the CD34+ represented 4.2% of the mononucleated cells (MNC).
After purification by positive selection with the MAC System procedure (Miltenyi Biotec) with beads coated with an anti-CD34 antibody, 90% of the cells are CD34+.
Culture Medium: RPMI containing 10% of FCS, 2% of penicillin/streptomycin, 1% of glutamine and 1% of sodium bicarbonate.
Culture in 2 ml wells with 5×10^5 cells per well. from D0 to D5: […] at 25 ng/ml, GM-CSF at 100 ng/ml and either TNF-α at 2.5 ng/ml […]
from D5 to D14: GM-CSF at 100 ng/ml
Duplication of the Cultures: -the cells are homogenized in the well, then 1 ml sample is taken and deposited in a fresh well. 1 ml of culture medium is then added to the fresh well and the old one, as well as GM-CSF as a function of the medium added.
A fluorescence-labelled anti-KLH primary antibody was used as control in order to be able to subtract the non-specific fluorescence of the signals obtained.

Langerhans cells = experiment: Differentiation of Langerhans cells from cord blood CD34+ cells (Example 4); conditions: D12; GM-CSF with TNF-α 2.5 ng/ml or RU 41740 10 μg/ml for 12 days
Source text: The stem cells are obtained after a passage of cord blood through a Ficoll gradient. The mononucleated CD34+ cells are purified by positive selection with an anti-CD34 monoclonal antibody (Immu 133.3, Immunotech Marseille, France). After purification, more than 90% of the cells are CD34+.
At the end of the culture period at D12, the cells are labelled with the anti-CD1a, CD14, Lag, E-cadherin, DR and DQ antibodies so as to identify the Langerhans cells which are Lag+, CD1a+, CD14−, DR+ and DQ+.

## TNF-α
[1]; D7
  CD1a, percentage of labelled cells: 4.41%
  CD14, percentage of labelled cells: 32%
  CD16, percentage of labelled cells: 2.24%
  CD34, percentage of labelled cells: 19.79%
  CD45, percentage of labelled cells: 99.84%
  CD83, percentage of labelled cells: 1.09%
  CD86, percentage of labelled cells: 11.61%
[1]; D9
  CD1a, percentage of labelled cells: 23.75%
  CD14, percentage of labelled cells: 59.6%
  CD16, percentage of labelled cells: 2.16%
  CD34, percentage of labelled cells: 2.53%
  CD45, percentage of labelled cells: 99.96%
  CD83, percentage of labelled cells: 4.24%
  CD86, percentage of labelled cells: 22.23%
[1]; D10
  CD1a, percentage of labelled cells: 20.63%
  CD14, percentage of labelled cells: 60%
  CD16, percentage of labelled cells: 2.11%
  CD34, percentage of labelled cells: 2.26%
  CD45, percentage of labelled cells: 99.97%
  CD83, percentage of labelled cells: 2.46%
  CD86, percentage of labelled cells: 9.23%
[1]; D12
  CD1a, percentage of labelled cells: 27.9%
  CD14, percentage of labelled cells: 66.77%
  CD34, percentage of labelled cells: 0.69%
  CD40, percentage of labelled cells: 75.91%
  CD45, percentage of labelled cells: 99.85%
  CD54, percentage of labelled cells: 74.66%
  CD83, percentage of labelled cells: 0.71%
  CD86, percentage of labelled cells: 13.94%
  HLA-DR, percentage of labelled cells: 81.34%
[1]; D13
  CD1a, percentage of labelled cells: 36.13%
  CD14, percentage of labelled cells: 57.73%
  CD34, percentage of labelled cells: 0.45%
  CD40, percentage of labelled cells: 63.35%
  CD45, percentage of labelled cells: 99.69%
  CD54, percentage of labelled cells: 61.7%
  CD83, percentage of labelled cells: 3.19%
  CD86, percentage of labelled cells: 12.78%
  HLA-DR, percentage of labelled cells: 73.04%
[1]; D14
  CD1a, percentage of labelled cells: 34.2%
  CD14, percentage of labelled cells: 46.77%
  CD34, percentage of labelled cells: 0.38%
  CD40, percentage of labelled cells: 64.56%
  CD45, percentage of labelled cells: 99.93%
  CD54, percentage of labelled cells: 64.4%
  CD83, percentage of labelled cells: 1.22%
  CD86, percentage of labelled cells: 19.33%
  HLA-DR, percentage of labelled cells: 57.84%
[2]; D8
  CD1a, percentage of cells expressing the marker: 8.7%
  CD14, percentage of cells expressing the marker: 40%
  CD34, percentage of cells expressing the marker: 0.7%
  CD40, percentage of cells expressing the marker: 44%
  CD45, percentage of cells expressing the marker: 96%
  CD54, percentage of cells expressing the marker: 33%
  CD83, percentage of cells expressing the marker: 0.5%
  CD86, percentage of cells expressing the marker: 13%
  HLA-DR, percentage of cells expressing the marker: 88%
[2]; D12
  CD1a, percentage of cells expressing the marker: 8.4%
  CD14, percentage of cells expressing the marker: 63.2%
  CD40, percentage of cells expressing the marker: 64.3%
  CD54, percentage of cells expressing the marker: 61.8%
  CD80, percentage of cells expressing the marker: 5.3%
  CD83, percentage of cells expressing the marker: 1.3%
  CD86, percentage of cells expressing the marker: 7.4%
  HLA-DQ, percentage of cells expressing the marker: 54.1%
  HLA-DR, percentage of cells expressing the marker: 80.3%
[2]; D14
  CD1a, percentage of cells expressing the marker: 10.3%
  CD14, percentage of cells expressing the marker: 54.1%
  CD83, percentage of cells expressing the marker: 0.8%
  CD86, percentage of cells expressing the marker: 2.2%
  HLA-DR, percentage of cells expressing the marker: 69.9%
Langerhans cells
  CD1a+ DR+ cells: 8%
  Lag+ DR+ cells: 5.2%
